These compounds were tested against T1, KRAS^G12C::SOS1 (Homo sapiens, UniProt Q07889) (assay: KRAS G12C::SOS1 protein-protein interaction (PPI) inhibition assay (HTRF binding kit)).
T1 sequence (Q07889 1-1333): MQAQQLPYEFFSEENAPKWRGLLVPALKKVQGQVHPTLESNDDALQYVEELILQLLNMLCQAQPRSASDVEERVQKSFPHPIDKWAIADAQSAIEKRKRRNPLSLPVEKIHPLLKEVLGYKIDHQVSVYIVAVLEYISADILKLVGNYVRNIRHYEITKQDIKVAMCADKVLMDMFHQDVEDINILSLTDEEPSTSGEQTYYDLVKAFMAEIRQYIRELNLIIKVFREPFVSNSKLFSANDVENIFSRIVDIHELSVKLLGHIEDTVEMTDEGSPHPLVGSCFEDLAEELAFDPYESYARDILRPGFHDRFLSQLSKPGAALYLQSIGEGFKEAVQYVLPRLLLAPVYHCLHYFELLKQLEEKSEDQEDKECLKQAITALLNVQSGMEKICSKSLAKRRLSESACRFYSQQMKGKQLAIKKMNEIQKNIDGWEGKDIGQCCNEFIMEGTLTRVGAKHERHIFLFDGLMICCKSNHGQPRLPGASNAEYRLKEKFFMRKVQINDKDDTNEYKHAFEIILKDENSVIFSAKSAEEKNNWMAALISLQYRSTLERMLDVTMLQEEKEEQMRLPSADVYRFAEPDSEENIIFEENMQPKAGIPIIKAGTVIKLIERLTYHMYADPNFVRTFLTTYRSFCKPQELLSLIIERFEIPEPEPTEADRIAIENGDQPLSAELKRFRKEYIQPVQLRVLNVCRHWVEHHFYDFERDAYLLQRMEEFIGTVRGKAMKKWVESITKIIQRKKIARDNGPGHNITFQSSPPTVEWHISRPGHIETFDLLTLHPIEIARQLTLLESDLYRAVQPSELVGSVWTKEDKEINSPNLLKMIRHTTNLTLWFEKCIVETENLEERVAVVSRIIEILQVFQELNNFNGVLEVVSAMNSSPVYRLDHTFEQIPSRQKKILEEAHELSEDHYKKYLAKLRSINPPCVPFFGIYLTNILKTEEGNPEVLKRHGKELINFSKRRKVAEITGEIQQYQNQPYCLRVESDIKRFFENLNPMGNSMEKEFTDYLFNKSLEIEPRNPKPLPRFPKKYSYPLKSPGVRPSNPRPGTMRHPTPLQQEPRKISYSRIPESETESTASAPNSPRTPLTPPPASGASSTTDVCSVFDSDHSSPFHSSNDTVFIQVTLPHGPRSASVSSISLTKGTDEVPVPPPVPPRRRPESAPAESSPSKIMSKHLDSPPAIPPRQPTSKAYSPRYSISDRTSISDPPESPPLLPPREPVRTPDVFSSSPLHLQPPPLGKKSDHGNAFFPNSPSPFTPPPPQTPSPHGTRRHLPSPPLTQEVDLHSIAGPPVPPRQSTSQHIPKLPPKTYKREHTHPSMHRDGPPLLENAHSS
In the case of `C[C@@H](NC(=O)c1ccc(=O)n(-c2cnn(C)c2)n1)c1cc(N)cc(C(F)(F)F)c1` [Example 200, N-[(1R)-1-[3-amino-5-(trifluoromethyl)phenyl]ethyl]-1-(1-methylpyrazol-4-yl)-6-oxo-pyridazine-3-carboxamide], the IC50 is reported as < 1000 nM. In the case of `CC(C)c1cccc([C@@H](C)NC(=O)c2ccc(=O)n(-c3ccccc3)n2)c1` [Example 201, N-[(1R)-1-(3-isopropylphenyl)ethyl]-6-oxo-1-phenyl-pyridazine-3-carboxamide], the IC50 is reported as < 1000 nM. With `C[C@@H](NC(=O)c1ccc(=O)n(-c2ccc(OC(F)(F)F)cc2)n1)c1cccc(C(F)(F)CO)c1F` [Example 202, N-[(1R)-1-[3-(1,1-difluoro-2-hydroxy-ethyl)-2-fluoro-phenyl]ethyl]-6-oxo-1-[4-(trifluoromethoxy)phenyl]pyridazine-3-carboxamide] the IC50 was < 1000 nM. For `COc1ccc(-n2cc(C(=O)N[C@H](C)c3cccc(C(F)(F)CO)c3F)ccc2=O)cc1` [Example 203, N-[(1R)-1-[3-(1,1-difluoro-2-hydroxy-ethyl)-2-fluoro-phenyl]ethyl]-1-(4-methoxyphenyl)-6-oxo-pyridine-3-carboxamide], the IC50 was < 1000 nM. For `COCc1cccc(-n2nc(C(=O)N[C@H](C)c3cccc(C(F)(F)CO)c3F)ccc2=O)c1` [Example 204, N-[(1R)-1-[3-(1,1-difluoro-2-hydroxy-ethyl)-2-fluoro-phenyl]ethyl]-1-[3-(methoxymethyl)phenyl]-6-oxo-pyridazine-3-carboxamide], the IC50 was < 1000 nM. For `COCc1cccc(-n2nc(C(=O)N[C@H](C)c3cc(N)cc(C(F)(F)F)c3)ccc2=O)c1` [Example 205, N-[(1R)-1-[3-amino-5-(trifluoromethyl)phenyl]ethyl]-1-[3-(methoxymethyl)phenyl]-6-oxo-pyridazine-3-carboxamide], the IC50 was < 1000 nM. `COc1ccc(-n2nc(C(=O)N[C@H](C)c3cccc(C(F)(F)CO)c3F)ccc2=O)cc1C(=O)N(C)C` [Example 206, N-[(1R)-1-[3-(1,1-difluoro-2-hydroxy-ethyl)-2-fluoro-phenyl]ethyl]-1-[3-(dimethylcarbamoyl)-4-methoxy-phenyl]-6-oxo-pyridazine-3-carboxamide] was tested, and the IC50 was < 1000 nM. In the case of `COc1ccc(-n2nc(C(=O)N[C@H](C)c3cc(N)cc(C(F)(F)F)c3)ccc2=O)cc1C(=O)N(C)C` [Example 207, N-[(1R)-1-[3-amino-5-(trifluoromethyl)phenyl]ethyl]-1-[3-(dimethylcarbamoyl)-4-methoxy-phenyl]-6-oxo-pyridazine-3-carboxamide], the IC50 is reported as < 1000 nM. For `C[C@@H](NC(=O)c1ccc(=O)n(-c2ccc3c(c2)COC3)n1)c1cc(N)cc(C(F)(F)F)c1` [Example 208, N-[(1R)-1-[3-amino-5-(trifluoromethyl)phenyl]ethyl]-1-(1,3-dihydroisobenzofuran-5-yl)-6-oxo-pyridazine-3-carboxamide], the IC50 was < 1000 nM. `C[C@@H](NC(=O)c1ccc(=O)n(-c2cnn(C)c2Cl)n1)c1cc(N)cc(C(F)(F)F)c1` [Example 209, N-[(1R)-1-[3-amino-5-(trifluoromethyl)phenyl]ethyl]-1-(5-chloro-1-methyl-pyrazol-4-yl)-6-oxo-pyridazine-3-carboxamide] was tested, and the IC50 was < 1000 nM. In the case of `C[C@@H](NC(=O)c1nn(-c2ccccc2F)c(=O)cc1Nc1ccccc1)c1cc(N)cc(C(F)(F)F)c1` [Example 210, N-[(1R)-1-[3-amino-5-(trifluoromethyl)phenyl]ethyl]-4-anilino-1-(2-fluorophenyl)-6-oxo-pyridazine-3-carboxamide], the IC50 is reported as < 1000 nM. `Cc1ncnn1-c1cccc(-n2nc(C(=O)N[C@H](C)c3cc(N)cc(C(F)(F)F)c3)ccc2=O)c1` [Example 211, N-[(1R)-1-[3-amino-5-(trifluoromethyl)phenyl]ethyl]-1-[3-(5-methyl-1,2,4-triazol-1-yl)phenyl]-6-oxo-pyridazine-3-carboxamide] was tested, and the IC50 was < 1000 nM. In the case of `C[C@@H](NC(=O)c1cc(N)c(=O)n(-c2ccccc2)n1)c1cc(N)cc(C(F)(F)F)c1` [Example 213, 5-amino-N-[(1R)-1-[3-amino-5-(trifluoromethyl)phenyl]ethyl]-6-oxo-1-phenyl-pyridazine-3-carboxamide], the IC50 is reported as < 1000 nM. `Cc1cc(C(=O)N[C@H](C)c2cc(N)cc(C(F)(F)F)c2)nn(-c2ccccc2)c1=O` [Example 214, N-[(1R)-1-[3-amino-5-(trifluoromethyl)phenyl]ethyl]-5-methyl-6-oxo-1-phenyl-pyridazine-3-carboxamide] was tested, and the IC50 was < 1000 nM. For `COc1ccc(-n2nc(C(=O)N[C@H](C)c3cccc(C(F)(F)CO)c3F)ccc2=O)c(F)c1` [Example 215, N-[(1R)-1-[3-(1,1-difluoro-2-hydroxy-ethyl)-2-fluoro-phenyl]ethyl]-1-(2-fluoro-4-methoxy-phenyl)-6-oxo-pyridazine-3-carboxamide], the IC50 was < 1000 nM. Compound `C[C@@H](NC(=O)c1ccc(=O)n(-c2ccccc2F)n1)c1cc(N)cc(C#N)c1F` [Example 216, N-[(1R)-1-(5-amino-3-cyano-2-fluoro-phenyl)ethyl]-1-(2-fluorophenyl)-6-oxo-pyridazine-3-carboxamide] has an IC50 of 1000 to 10000 nM. `C[C@@H](NC(=O)c1ccc(=O)n(-c2ccccc2F)n1)c1cccc(C(F)(F)CO)c1F` [Example 217, N-[(1R)-1-[3-(1,1-difluoro-2-hydroxy-ethyl)-2-fluoro-phenyl]ethyl]-1-(2-fluorophenyl)-6-oxo-pyridazine-3-carboxamide] was tested, and the IC50 was < 1000 nM. `C[C@@H](NC(=O)c1ccc(=O)n(-c2ccccc2F)c1)c1cc(N)cc(C(F)(F)F)c1` [Example 218, N-[(1R)-1-[3-amino-5-(trifluoromethyl)phenyl]ethyl]-1-(2-fluorophenyl)-6-oxo-pyridine-3-carboxamide] was tested, and the IC50 was < 1000 nM. `C[C@@H](NC(=O)c1ccc(=O)n(-c2ccccc2)n1)c1cc(O)cc(F)c1` [Example 219, N-[(1R)-1-(3-fluoro-5-hydroxy-phenyl)ethyl]-6-oxo-1-phenyl-pyridazine-3-carboxamide] was tested, and the IC50 was < 1000 nM. `C[C@@H](NC(=O)c1nn(-c2ccccc2)c(=O)cc1Cl)c1cc(N)cc(C(F)(F)F)c1` [Example 220, N-[(1R)-1-[3-amino-5-(trifluoromethyl)phenyl]ethyl]-4-chloro-6-oxo-1-phenyl-pyridazine-3-carboxamide] was tested, and the IC50 was < 1000 nM. In the case of `C[C@@H](NC(=O)c1ccc(=O)[nH]n1)c1cc(N)cc(C(F)(F)F)c1` [Example 221, N-[(1R)-1-[3-amino-5-(trifluoromethyl)phenyl]ethyl]-6-oxo-1H-pyridazine-3-carboxamide], the IC50 is reported as < 1000 nM. For `COCCn1nc(C(=O)N[C@H](C)c2cc(N)cc(C(F)(F)F)c2)ccc1=O` [Example 222, N-[(1R)-1-[3-amino-5-(trifluoromethyl)phenyl]ethyl]-1-(2-methoxyethyl)-6-oxo-pyridazine-3-carboxamide], the IC50 was < 1000 nM. `C[C@@H](NC(=O)c1ccc(=O)n(CCO)n1)c1cc(N)cc(C(F)(F)F)c1` [Example 223, N-[(1R)-1-[3-amino-5-(trifluoromethyl)phenyl]ethyl]-1-(2-hydroxyethyl)-6-oxo-pyridazine-3-carboxamide] was tested, and the IC50 was < 1000 nM. With `C[C@@H](NC(=O)c1ccc(=O)n(CC2CC2)n1)c1cc(N)cc(C(F)(F)F)c1` [Example 224, N-[(1R)-1-[3-amino-5-(trifluoromethyl)phenyl]ethyl]-1-(cyclopropylmethyl)-6-oxo-pyridazine-3-carboxamide] the IC50 was < 1000 nM. `C[C@@H](NC(=O)c1ccc(=O)n(Cc2ccccn2)n1)c1cc(N)cc(C(F)(F)F)c1` [Example 225, N-[(1R)-1-[3-amino-5-(trifluoromethyl)phenyl]ethyl]-6-oxo-1-(2-pyridylmethyl)pyridazine-3-carboxamide] was tested, and the IC50 was < 1000 nM. In the case of `C[C@@H](NC(=O)c1ccc(=O)n(CCF)n1)c1cc(N)cc(C(F)(F)F)c1` [Example 226, N-[(1R)-1-[3-amino-5-(trifluoromethyl)phenyl]ethyl]-1-(2-fluoroethyl)-6-oxo-pyridazine-3-carboxamide], the IC50 is reported as < 1000 nM. For `C[C@@H](NC(=O)c1ccc(=O)n(Cc2ccccc2)n1)c1cc(N)cc(C(F)(F)F)c1` [Example 227, N-[(1R)-1-[3-amino-5-(trifluoromethyl)phenyl]ethyl]-1-benzyl-6-oxo-pyridazine-3-carboxamide], the IC50 was < 1000 nM.

Source: patent EP4667458A1 (Kanaph Therapeutics Inc., priority 2023, dated 2024)
